The results in this text go back to ChEMBL document CHEMBL1132084, “Thrombin inhibitors based on a propargylglycine template” (Bioorg Med Chem Lett, 1999).

One series deals with Prothrombin (Homo sapiens, UniProt P00734). Description: Inhibition of human thrombin.
In a further series the target is T1, Serine protease 1 (Bos taurus, UniProt P00760).
T1 sequence (P00760 whole entry): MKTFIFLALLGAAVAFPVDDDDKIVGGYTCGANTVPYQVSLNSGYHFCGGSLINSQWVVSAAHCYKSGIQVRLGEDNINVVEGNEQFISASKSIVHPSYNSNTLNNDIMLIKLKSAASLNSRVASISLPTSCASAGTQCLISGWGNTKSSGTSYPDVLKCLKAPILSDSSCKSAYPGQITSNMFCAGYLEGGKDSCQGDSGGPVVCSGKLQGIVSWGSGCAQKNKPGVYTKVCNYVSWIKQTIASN
Description: Inhibitory activity against bovine trypsin.

The next series has as its target Coagulation factor X (Homo sapiens, UniProt P00742). Description: Inhibitory activity against factor Xa.
In another series the target is Plasminogen (Homo sapiens, UniProt P00747). Put plainly: Inhibitory activity against plasmin.
Series [1] concerns the target Tissue-type plasminogen activator (Homo sapiens, UniProt P00750). Put plainly: Inhibitory activity against tissue type plasminogen activator (t-PA).
Series [2] can be described thus: Area under was determined at a dose of 30 mg/kg. Particulars: in vivo. The class given is ADME, organism-based. More on the design: dose 30 mg/kg.
Series [3] in a line: Cmax at a dose of […] mg/kg in rat. It is filed as ADME, organism-based. The note with it: in vivo, 30 mg/kg.
Series [4] can be described thus: Tmax at a dose of 30 mg/kg in rat. It is filed as ADME, organism-based. The arrangement: dose 30 mg/kg. The note with it: in vivo.

Some results are limits rather than exact numbers.

Chain of Coagulation factor X (P00742 41-179 limits assumed): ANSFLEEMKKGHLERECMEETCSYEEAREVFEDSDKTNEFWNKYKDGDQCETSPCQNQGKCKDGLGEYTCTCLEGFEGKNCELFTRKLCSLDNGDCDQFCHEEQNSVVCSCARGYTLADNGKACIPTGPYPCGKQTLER
Chain of Coagulation factor X (P00742 235-488 limits assumed): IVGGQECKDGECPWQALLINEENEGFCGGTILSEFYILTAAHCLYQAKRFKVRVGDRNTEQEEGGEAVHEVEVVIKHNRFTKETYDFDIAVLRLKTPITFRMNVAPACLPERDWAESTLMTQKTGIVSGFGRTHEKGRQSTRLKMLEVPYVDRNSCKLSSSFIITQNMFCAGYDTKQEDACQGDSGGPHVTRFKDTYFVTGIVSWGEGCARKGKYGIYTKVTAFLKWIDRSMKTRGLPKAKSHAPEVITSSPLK
Chain of Tissue-type plasminogen activator (P00750 whole entry): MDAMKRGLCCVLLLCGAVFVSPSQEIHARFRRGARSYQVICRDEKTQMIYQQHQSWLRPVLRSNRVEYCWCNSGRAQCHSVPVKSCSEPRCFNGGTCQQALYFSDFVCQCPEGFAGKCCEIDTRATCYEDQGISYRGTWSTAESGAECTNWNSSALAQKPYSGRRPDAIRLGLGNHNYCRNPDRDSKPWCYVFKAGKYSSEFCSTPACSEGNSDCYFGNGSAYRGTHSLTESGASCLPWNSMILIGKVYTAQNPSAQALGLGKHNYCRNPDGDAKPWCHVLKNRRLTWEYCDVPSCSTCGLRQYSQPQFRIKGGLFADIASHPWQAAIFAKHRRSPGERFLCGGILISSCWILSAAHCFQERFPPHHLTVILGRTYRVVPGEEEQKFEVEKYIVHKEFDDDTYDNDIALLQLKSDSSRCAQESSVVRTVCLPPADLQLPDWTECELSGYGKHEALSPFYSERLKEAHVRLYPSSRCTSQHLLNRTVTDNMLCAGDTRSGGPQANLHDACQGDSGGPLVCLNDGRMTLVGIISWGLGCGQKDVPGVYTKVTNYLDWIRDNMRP
Chain of Plasminogen (P00747 97-580 limits assumed): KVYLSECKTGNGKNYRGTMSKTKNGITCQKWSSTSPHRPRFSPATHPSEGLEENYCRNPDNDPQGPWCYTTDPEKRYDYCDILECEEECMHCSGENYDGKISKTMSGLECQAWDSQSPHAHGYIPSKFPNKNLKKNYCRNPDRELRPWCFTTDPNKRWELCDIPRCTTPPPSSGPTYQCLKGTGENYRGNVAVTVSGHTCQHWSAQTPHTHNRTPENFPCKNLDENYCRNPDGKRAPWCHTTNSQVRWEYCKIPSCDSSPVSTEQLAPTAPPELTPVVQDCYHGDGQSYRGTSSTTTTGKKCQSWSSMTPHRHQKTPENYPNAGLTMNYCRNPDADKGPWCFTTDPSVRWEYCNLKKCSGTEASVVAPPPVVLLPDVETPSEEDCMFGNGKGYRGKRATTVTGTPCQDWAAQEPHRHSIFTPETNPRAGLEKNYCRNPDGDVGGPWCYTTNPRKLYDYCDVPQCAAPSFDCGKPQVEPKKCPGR
Chain of Plasminogen (P00747 581-810 limits assumed): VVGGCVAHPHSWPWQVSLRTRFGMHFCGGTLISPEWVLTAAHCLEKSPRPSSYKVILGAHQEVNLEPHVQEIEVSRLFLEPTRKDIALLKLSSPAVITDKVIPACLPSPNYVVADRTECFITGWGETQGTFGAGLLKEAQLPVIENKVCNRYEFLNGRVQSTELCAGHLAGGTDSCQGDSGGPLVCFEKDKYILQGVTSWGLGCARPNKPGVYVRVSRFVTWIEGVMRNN

The Ki is the equilibrium dissociation constant of an inhibitor or competing ligand from its target. Low readings indicate a stronger hold on the target, high ones a looser hold on the target. As for `CN(C(=O)[C@H](CC#Cc1ccncc1)NS(=O)(=O)c1ccc2ccccc2c1)C1CCCC1`, the Ki at Prothrombin was above 20 µM.

On to `CN(C(=O)[C@H](CC#Cc1cnc[nH]1)NS(=O)(=O)c1ccc2ccccc2c1)C1CCCC1`, for which, on Prothrombin, the affinity, expressed as Ki, was 3 µM.

With `CN(C(=O)[C@H](CC#Cc1cccc(N)c1)NS(=O)(=O)c1ccc2ccccc2c1)C1CCCC1`, affinity at Prothrombin was put at a Ki of 2.2 µM.

Regarding `CNc1ccc(C#CC[C@H](NS(=O)(=O)c2ccc3ccccc3c2)C(=O)N(C)C2CCCC2)cc1N`, the Ki on Prothrombin was determined as 0.04 µM; at Serine protease 1, 32 µM.

For `CN(C(=O)[C@H](CC#Cc1cnc(N)s1)NS(=O)(=O)c1ccc2ccccc2c1)C1CCCC1`, the Ki on Prothrombin was determined as 4.5 µM.

`CN(C(=O)[C@H](CC#Cc1ccc(NN)cc1)NS(=O)(=O)c1ccc2ccccc2c1)C1CCCC1` yielded a Ki at Prothrombin of 1.5 µM.

The compound `CN(C(=O)[C@H](CC#Cc1ccc(N)c(N)c1)NS(=O)(=O)c1ccc2ccccc2c1)C1CCCC1` displayed a Ki at Prothrombin of 0.22 µM.

On to `CNc1ccc(C#CC[C@H](NS(=O)(=O)c2ccc3cc(OC)ccc3c2)C(=O)N(C)C2CCCC2)cc1`, for which the Ki at Coagulation factor X was 14 µM; at Plasminogen, above 200 µM; on Prothrombin, 0.027 µM; at Serine protease 1, above 30 µM; in series [1] it was above 200 µM.

The compound `CCNc1ccc(C#CC[C@H](NS(=O)(=O)c2ccc3ccccc3c2)C(=O)N(C)C2CCCC2)cc1` gave a Ki at Prothrombin of 49 µM.

`CN(C(=O)[C@H](CC#Cc1ccc(CN)cc1)NS(=O)(=O)c1ccc2ccccc2c1)C1CCCC1` showed a Ki at Prothrombin of 3.4 µM.

Consider `CCCc1ccc(S(=O)(=O)N[C@@H](CC#Cc2ccc(NC)cc2)C(=O)N(C)C2CCCC2)cc1`, for which the Ki is 6.6 µM at Coagulation factor X; above 200 µM at Plasminogen; 0.008 µM on Prothrombin; above 30 µM at Serine protease 1; 190 µM in series [1].

The compound `CN(C(=O)[C@H](CC#Cc1ccc(N)cc1)NS(=O)(=O)c1ccc2ccccc2c1)C1CCCC1` had a Ki at Prothrombin of 0.29 µM.

With `CNc1ccc(C#CC[C@H](NS(=O)(=O)c2ccc3ccccc3c2)C(=O)N(C)C2CCCC2)cc1`, the Ki at Coagulation factor X is 8.7 µM; on Plasminogen, above 200 µM; on Prothrombin, 0.019 µM; at Serine protease 1, 37 µM; in series [1], above 200 µM.

In general, AUC refers to the area under the concentration-time curve, a measure of exposure. A low value points to low exposure. As usually defined, the Cmax is the peak of the concentration-time curve. One may read the Tmax as the time from dosing to the highest level. In turn, `CNc1ccc(C#CC[C@H](NS(=O)(=O)c2ccc3c(c2)CCCC3)C(=O)N(C)C2CCCC2)cc1` came in with an exposure (AUC) in series [2] of 4.6 µM·h. The concentration in series [3] peaked (Cmax) at 1800 nM. Moreover, the Tmax in series [4] is 45 min. The Ki at Coagulation factor X is 1.9 µM; at Plasminogen it was above 200 µM; on Prothrombin, 0.005 µM; on Serine protease 1, above 30 µM; in series [1], 200 µM.

In the case of `CN(C(=O)[C@H](CC#Cc1cnc(N)nc1)NS(=O)(=O)c1ccc2ccccc2c1)C1CCCC1`, the Ki on Prothrombin was above 20 µM.

For `CN(C(=O)[C@H](CC#Cc1cccnc1)NS(=O)(=O)c1ccc2ccccc2c1)C1CCCC1`, the affinity on Prothrombin, expressed as Ki, was 2.5 µM.

As for `CNc1ncc(C#CC[C@H](NS(=O)(=O)c2ccc3ccccc3c2)C(=O)N(C)C2CCCC2)cn1`, the Ki on Prothrombin worked out at 3.5 µM.

Turning to `CNc1ccc(C#CC[C@H](NS(=O)(=O)c2ccc3ccccc3c2)C(=O)N(C)C2CCCC2)cn1`, on Prothrombin, the affinity corresponds to a Ki of 0.3 µM.

As to `CN(C(=O)[C@H](CC#Cc1ccc(N)nc1)NS(=O)(=O)c1ccc2ccccc2c1)C1CCCC1`, the affinity at Prothrombin, expressed as Ki, was 1.5 µM.
